Experimental data from patent US11083717B2, “Compositions and methods for drug sensitization of parasites” (The Texas A&M University System, priority 2015, dated 2021).
≈ marks a conversion by molar mass, not a printed value. Like-named read-outs stand apart in the source and are kept apart here.

How the values were obtained:
[1] = test system: S. cerevisiae; experiment: in vitro; conditions: Saccharomyces cerevisiae
[2] = test system: human fibroblast; experiment: in vitro
[3] = test system: Cryptosporidium parvum (CP); experiment: Cell culture model of Cryptosporidium parvum infection in HCT-8 cells, real-time qRT-PCR; assay type: cell-based; conditions: Cryptosporidium parvum; for MIC50: 44 h
Procedure: Fresh oocysts of CP (Iowa strain) were purchased from Bunch Grass Farm (Deary, Id.). Oocysts were further purified by a Percoll-based gradient centrifugation method and surface sterilized with 10% bleach for 7 min on ice, followed by washes with phosphate-buffered saline (PBS). An ileocecal colorectal adenocarcinoma cell line (HCT-8, ATCC #CCL-244) was used to host the growth of CP in vitro. One day before the inoculation, HCT-8 cells were seeded in 96-well plates (2.5×10^4/well) containing RPMI 1640 medium supplied with 10% fetal bovine serum (200 μL medium/well in all experiments) and allowed to grow overnight at 37° C. under 5% CO2 atmosphere until they reached ˜90% confluence. For drug testing, host cells were infected with 1.5×10^4 oocysts per well (ratio ˜1:3). After inoculation, parasite oocysts were allowed to undergo excystation and invasion into host cells for 3 h at 37° C. Free parasites and oocyst walls in the medium were removed from the plates by an exchange of the culture medium. Drugs at specified concentrations were added into the culture at this time point (immediately after the medium exchange). Parasite-infected cells were then incubated at 37° C. for additional 41 h (total 44 h infection time). At least two independent experiments were conducted for every experimental condition, each including two replicates drugs and eight replicates for negative controls.
Plates containing HCT-8 cells infected with CP for 44 h were first centrifuged for 10 min at 1000×g to ensure that free merozoites in the medium were firmly settled on the bottom of the wells. Medium was removed, followed by two gentle washes with PBS. For extracting total RNA, 200 μL of ice-cold Bio-Rad iScript qRT-PCR sample preparation reagent (lysis buffer) (Bio-Rad Laboratories, Hercules, Calif.) was added into each well. Plates were sealed with heat sealing films and subjected to vortex for 20 min. Plates were then incubated at 75° C. for 15 min, followed by centrifugation (5 min, 2000×g) to settle down cell debris. Supernatants were used immediately in subsequent qRT-PCR reactions or the plates were stored at −80° C. until use.
The levels of 18S rRNA transcripts from CP and host cells (referred to as Cp18S and Hs18S) were detected by real-time qRT-PCR method using qScrip™ one-step SYBR green qRT-PCR kit (Quanta Biosciences, Gaithersburg, Md.). Cell lysates prepared as described above were diluted by 100 and 2000 folds for detecting Cp18S and Hs18S transcripts, respectively. Reactions were performed in hard-shell 384-well skirted PCR plates (Bio-Rad Laboratories, Hercules, Calif.) (10 μL/well) containing 3 μL diluted cell lysate, 5 μL one-step SYBR green master mix, 0.2 μl RT master mix and the following primers: Cp18S-1011F and Cp18S-1185R primer pair for Cp18S rRNA, and Hs18S-1F and Hs18S-1R primer pair for Hs18S rRNA. Hs18S levels were used as controls and for normalization.
Real-time qRT-PCR reactions were performed by a Bio-Rad CFX384 Touch Real-Time PCR Detection System. The reactions started with synthesizing cDNA at 50° C. for 20 min, followed by 5 min at 95° C. to denature RNA-cDNA hybrids and deactivate reverse transcriptase, and 40 two-temperature thermal cycles of PCR amplification at 95° C., 10 sec and 58° C., 30 sec. At the end of PCR amplification, melting curve analysis was performed between 65° C. to 95° C. At least 2 technical replicates were included in qRT-PCR reactions for each sample.
The % inhibition (% inh @ (μM)) was calculated using a standard curve.

[4] = HCT-8, @10 uM, read-out: % inh @
[5] = CP in HCT-8 cells, 44 h infection, 50% reduction of parasite growth vs control, NA: not active, read-out: MIC50

| SMILES | concentrations at which not toxic, S. cerevisiae cytotoxicity testing [1] | concentrations at which not toxic, human fibroblast cytotoxicity testing [2] | concentrations at which not toxic, human fibroblast cytotoxicity testing ([2]; human) | MIC50 [3, 5] | also measured |
| --- | --- | --- | --- | --- | --- |
| CONC(=O)COc1ccc(Oc2cnc3cc(Cl)ccc3n2)cc1 [NZ-274, 2-{4-[(6-chloroquinoxalin-2-yl)oxy]phenoxy}-N-methoxyacetamide] | ≥ 100 µM | ≥ 100 µM |  |  | inhibition at 10 µM ([3]; HCT-8, read-out: % inh @ (μM)): 1.5% |
| CONC(=O)[C@@H](C)Oc1ccc(Oc2cnc3cc(Cl)ccc3n2)cc1 [NZ-295, (2R)-2-{4-[(6-chloroquinoxalin-2-yl)oxy]phenoxy}-N-methoxypropanamide] | ≥ 100 µM |  | ≥ 100 µM |  | inhibition at 10 µM [3, 4]: 61% |
| CONC(=O)C(C)c1ccc(Oc2cnc3cc(Cl)ccc3n2)cc1 (stereo not drawn) [NZ-310, 2-{4-[(6-chloroquinoxalin-2-yl)oxy]phenyl}-N-methoxypropanamide] | ≥ 100 µM |  | ≥ 100 µM |  | inhibition at 10 µM [3, 4]: 83% |
| CC(C)NC(=O)Nc1ccc(Oc2nc3ccc(Cl)cc3s2)cc1 [NZ-331, 1-{4-[(6-chloro-1,3-benzothiazol-2-yl)oxy]phenyl}-3-(propan-2-yl)urea] | ≥ 100 µM | ≥ 100 µM |  |  | inhibition at 0.05 µM ([3]; HCT-8, read-out: % inh @ (μM)): 36% |
| CC(C)NC(=O)Nc1ccc(Oc2nc3ccc(F)cc3s2)cc1 [NZ-332, 1-{4-[(6-fluoro-1,3-benzothiazol-2-yl)oxy]phenyl}-3-(propan-2-yl)urea] | ≥ 100 µM | ≥ 100 µM |  |  | MIC50 [3]: ~2.5 µM (≈ 0.863 µg/mL) |
| CC(C(=O)N(C)C)c1ccc(Oc2nc3ccc(Cl)cc3s2)cc1 (stereo not drawn) [NZ-368, 2-{4-[(6-chloro-1,3-benzothiazol-2-yl)oxy]phenyl}-N,N-dimethylpropanamide] | 25 to 50 µM |  | ≥ 100 µM | < 0.125 µM |  |
| CC(C(=O)NC(CO)CO)c1ccc(Oc2nc3ccc(Cl)cc3s2)cc1 (stereo not drawn) [NZ-371, 2-{4-[(6-chloro-1,3-benzothiazol-2-yl)oxy]phenyl}-N-(1,3-dihydroxypropan-2-yl)propanamide] | ≥ 100 µM |  | ≥ 100 µM | 0.15 to 0.23 µM (≈ 0.061 to 0.0936 µg/mL) |  |
| CNC(=O)C(C)c1ccc(Oc2nc3ccc(F)cc3s2)cc1 (stereo not drawn) [NZ-386, 2-{4-[(6-fluoro-1,3-benzothiazol-2-yl)oxy]phenyl}-N-methylpropanamide] | ≥ 100 µM |  | ≥ 100 µM | 0.05 to 0.3 µM (≈ 0.0165 to 0.0991 µg/mL) |  |
| CNC(=O)C(C)c1ccc(Oc2nc3cc(F)c(F)cc3s2)cc1 (stereo not drawn) [NZ-387, 2-{4-[(5,6-difluoro-1,3-benzothiazol-2-yl)oxy]phenyl}-N-methylpropanamide] | ≥ 100 µM |  | ≥ 100 µM | ~0.44 µM (≈ 0.153 µg/mL) |  |
| CNC(=O)Cc1ccc(Oc2nc3ccc(Cl)cc3s2)cc1O [NZ-389, 2-{4-[(6-chloro-1,3-benzothiazol-2-yl)oxy]-2-hydroxyphenyl}-N-methylacetamide] | ≥ 100 µM |  | ≥ 100 µM | ~1.1 µM (≈ 0.384 µg/mL) |  |
| CNC(=O)Cc1ccc(Oc2nc3ccc(F)cc3s2)cc1O [NZ-395, 2-{4-[(6-fluoro-1,3-benzothiazol-2-yl)oxy]-2-hydroxyphenyl}-N-methylacetamide] | ≥ 100 µM |  | ≥ 100 µM | ~5 µM (≈ 1.66 µg/mL) |  |
| COC(=O)Cc1ccc(Oc2nc3cc(F)c(F)cc3s2)cc1 [NZ-398, methyl 2-{4-[(5,6-difluoro-1,3-benzothiazol-2-yl)oxy]phenyl}acetate] | ≥ 100 µM | ≥ 100 µM |  |  | MIC50 [3]: ~10 µM; inhibition at 10 µM ([3]; HCT-8, read-out: % inh @ (μM)): 50% |
| CNC(=O)Cc1ccc(Oc2nc3cc(F)c(F)cc3s2)cc1 [NZ-400, 2-{4-[(5,6-difluoro-1,3-benzothiazol-2-yl)oxy]phenyl}-N-methylacetamide] | ≥ 100 µM | ≥ 100 µM |  |  | MIC50 [3]: ~10 µM (≈ 3.34 µg/mL); inhibition at 10 µM ([3]; HCT-8, read-out: % inh @ (μM)): 67% |
| CNC(=O)Cc1ccc(Oc2nc3cc(F)c(F)cc3s2)cc1O [NZ-401, 2-{4-[(5,6-difluoro-1,3-benzothiazol-2-yl)oxy]-2-hydroxyphenyl}-N-methylacetamide] | ≥ 100 µM | ≥ 100 µM |  |  | inhibition at 4 µM ([3]; HCT-8, read-out: % inh @ (μM)): 3% |
| CC(C)NC(=O)Cc1ccc(Oc2nc3cc(F)c(F)cc3s2)cc1 [NZ-403, 2-{4-[(5,6-difluoro-1,3-benzothiazol-2-yl)oxy]phenyl)-N-(propan-2-yl)acetamide] | ≥ 100 µM |  | ≥ 100 µM | ~10 µM (≈ 3.62 µg/mL) | inhibition at 10 µM [3, 4]: 63% |
| CN1CCN(C(=O)Cc2ccc(Oc3nc4cc(F)c(F)cc4s3)cc2)CC1 [NZ-409, 2-{4-[(5,6-difluoro-1,3-benzothiazol-2-yl)oxy]phenyl}-1-(4-methylpiperazin-1-yl)ethan-1-one] | ≥ 100 µM |  | ≥ 100 µM | ~0.44 µM (≈ 0.178 µg/mL) |  |
| CNC(=O)Cc1ccc(Oc2nc3ccc(F)cc3s2)cc1F [NZ-410, 2-{2-fluoro-4-[(6-fluoro-1,3-benzothiazol-2-yl)oxy]phenyl}-N-methylacetamide] | ≥ 100 µM | ≥ 100 µM |  |  | MIC50 [3]: 2 to 10 µM (≈ 0.669 to 3.34 µg/mL); inhibition at 10 µM ([3]; HCT-8, read-out: % inh @ (μM)): 94% |
| CNC(=O)Cc1ccc(Oc2nc3cc(F)c(F)cc3s2)cc1F [NZ-411, 2-{4-[(5,6-difluoro-1,3-benzothiazol-2-yl)oxy]-2-fluorophenyl}-N-methylacetamide] | ≥ 100 µM | ≥ 100 µM |  |  | inhibition at 10 µM ([3]; HCT-8, read-out: % inh @ (μM)): 75.7% |
| CN(C)CCNC(=O)Cc1ccc(Oc2nc3ccc(F)cc3s2)cc1 [NZ-425, N-[2-(dimethylamino)ethyl]-2-{4-[(6-fluoro-1,3-benzothiazol-2-yl)oxy]phenyl}acetamide] | ≥ 100 µM |  | ≥ 100 µM | 0.25 to 0.5 µM (≈ 0.0934 to 0.187 µg/mL) |  |
| O=C(Cc1ccc(Oc2nc3ccc(F)cc3s2)cc1)NCCO [NZ-426, 2-{4-[(6-fluoro-1,3-benzothiazol-2-yl)oxy]phenyl}-N-(2-hydroxyethyl)acetamide] | ≥ 100 µM |  | ≥ 100 µM | 0.25 to 1 µM (≈ 0.0866 to 0.346 µg/mL) |  |
| O=C(Cc1ccc(Oc2nc3ccc(Cl)cc3s2)cc1)N1CCS(=O)(=O)CC1 [NZ-576, 4-(2-{4-[(6-chloro-1,3-benzothiazol-2-yl)oxy]phenyl}acetyl)-1λ^6,4-thiomorpholine-1,1-dione] |  |  |  | ~0.03 µM (≈ 0.0131 µg/mL) |  |
| O=C(Cc1ccc(Oc2nc3ccc(Cl)cc3s2)cc1)NC1COC1 [NZ-577, 2-{4-[(6-chloro-1,3-benzothiazol-2-yl)oxy]phenyl}-N-(oxetan-3-yl)acetamide] |  |  |  | ~0.25 µM (≈ 0.0937 µg/mL) |  |
